Data taken from patent US10391089B2, “PRMT5 inhibitors and uses therof” (Epizyme, Inc., priority 2012, dated 2019).
pEC50: −log10 of the molar value.

Each molecule was assayed on symmetric di-methyl arginine in Z-138 cells (assay: Z-138 Methylation Assay (In Cell Western for symmetric di-methyl arginine and DNA content)). Conditions: Homo sapiens; Z-138 methylation In Cell Western; read-out: ICW EC50.
Assay type: cell-based
Source text: [formula] [formula] Where top and bottom are the normally allowed to float, but may be fixed at 100 or 0 respectively in a 3-parameter fit. The Hill Coefficient normally allowed to float but may also be fixed at 1 in a 3-parameter fit. Y is the % inhibition and X is the compound concentration.
RPMI/Glutamax medium, penicillin-streptomycin, heat inactivated fetal bovine serum, and D-PBS were purchased from Life Technologies, Grand Island, N.Y., USA. Odyssey blocking buffer, 800CW goat anti-rabbit IgG (H+L) antibody, and Licor Odyssey infrared scanner were purchased from Licor Biosciences, Lincoln, Nebr., USA. Symmetric di-methyl arginine antibody was purchased from EMD Millipore, Billerica, Mass., USA. 16% Paraformaldehyde was purchased from Electron Microscopy Sciences, Hatfield, Pa., USA.
Cell Treatment, in Cell Western (ICW) for Detection of Symmetric Di-Methyl Arginine and DNA Content.
Z-138 cells were seeded in assay medium at a concentration of 50,000 cells per mL to a 384-well cell culture plate with 50 μL per well. Compound (100 nL) from 384 well source plates was added directly to 384 well cell plate. Plates were incubated at 37° C., 5% CO2 for 96 hours. […] Plates were incubated at room temperature for 30 minutes then incubated at 37° C., 5% CO2 for 5 hours. After the incubation, 40 μL per well of 8% paraformaldehyde in PBS (16% paraformaldahyde was diluted to 8% in PBS) was added to each plate and incubated for 30 minutes. […] Next 30 μL per well of Odyssey blocking buffer were added to each plate and incubated 1 hour at room temperature. Blocking buffer was removed and 20 μL per well of primary antibody was added (symmetric di-methyl arginine diluted 1:100 in Odyssey buffer with 0.1% Tween 20 (v/v)) and plates were incubated overnight (16 hours) at 4° C. Plates were washed 5 times with 100 μL per well of wash buffer. Next 20 μL per well of secondary antibody was added (1:200 800CW goat anti-rabbit IgG (H+L) antibody, 1:1000 DRAQ5 (Biostatus limited) in Odyssey buffer with 0.1% Tween 20 (v/v)) and incubated for 1 hour at room temperature. The plates were washed 5 times with 100 μL per well wash buffer then 1 time with 100 μL per well of water. Plates were allowed to dry at room temperature then imaged on the Licor Odyssey machine which measures integrated intensity at 700 nm and 800 nm wavelengths. Both 700 and 800 channels were scanned.
First, the ratio for each well was determined by:
Each plate included fourteen control wells of DMSO only treatment (minimum inhibition) as well as fourteen control wells for maximum inhibition treated with 3 μM of a reference compound (Background wells). The average of the ratio values for each control type was calculated and used to determine the percent inhibition for each test well in the plate. Reference compound was serially diluted three-fold in DMSO for a total of nine test concentrations, beginning at 3 μM. Percent inhibition was determined and IC50 curves were generated using triplicate wells per concentration of compound.

Row | pEC50 | SMILES
1 | 6.00 to 7.00 | CN1CCC(Oc2cncc(C(=O)NC[C@H](O)CN3CCc4ccccc4C3)c2)CC1 [Compound 288]
2 | > 7.00 | CS(=O)(=O)N1CCC(Oc2cncc(C(=O)NC[C@H](O)CN3CCc4ccccc4C3)c2)CC1 [Compound 290]
3 | 6.00 to 7.00 | O=C(NC[C@H](O)CN1CCc2ccccc2C1)c1cccc2ccccc12 [Compound 295]
4 | > 7.00 | O=C(NC[C@H](O)CN1CCc2ccccc2C1)c1cncc(NC2COC2)c1 [Compound 299]
5 | > 7.00 | O=C(NC[C@H](O)CN1CCc2ccccc2C1)c1cncc(NC2CCN(CC(F)(F)F)C2)c1 (some centres unmarked) [Compound 303]
